For 23 compounds, IC50 results are on record in patent US8207172B2 (Bayer Intellectual Property GmbH, priority 2004, dated 2012).

Assay [1] has as its system BT474 (human breast carcinoma). Description: In vitro tumor cell proliferation assay (Cell Titer-Glo luminescent cell viability), BT474. It is filed as cell-based. Conditions: BT-474, 72 h, BT474 cells, 72 hours of drug exposure, ATP luminescence readout, read-out: IC50, anti-proliferative activity (inhibition of cell proliferation). In a few lines:
(§1)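 IC50 values reflect ATP-based luminescence (CellTiter-Glo) after 72 h compound exposure at 37°C. Both lines, A431 and BT474, were plated in RPMI with 10% FBS and received serial dilutions ranging from 100 μM to 64 pM final at 0.1% DMSO.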

Assay [2] relates to A431 cells (human epidermoid carcinoma). The assay can be described thus: In vitro tumor cell proliferation assay (Cell Titer-Glo luminescent cell viability), A431. It is filed as cell-based. As to conditions: A-431, 72 h, 72 hours of drug exposure, ATP luminescence readout, read-out: IC50, anti-proliferative activity (inhibition of cell proliferation). In a few lines:
as §1
Background: ATP-based viability assays read luminescence as a measure of living cells.

Counter-ions that a name gives are not always drawn.

In the case of `COCCNC[C@@H](O)Cn1cc2c(n1)CCc1c-2sc2ncnc(Nc3ccc(OCc4cccc(F)c4)c(Cl)c3)c12` [Example 146, (2R)-1-[6-({3-chloro-4-[(3-fluorobenzyl)oxy]phenyl}amino)-4,5-dihydro-2H-pyrimido[5′,4′:4,5]thieno[2,3-e]indazol-2-yl]-3-[(2-methoxyethyl)amino]propan-2-ol], the IC50 in assay [1] is at most 1 µM; in assay [2], at most 50 µM.

In the case of `CN(C)C[C@@H](O)Cn1ncc2c1CCc1c-2sc2ncnc(Nc3ccc(OCc4cccc(F)c4)c(Cl)c3)c12` [Example 171, (2R)-1-[6-({3-chloro-4-[(3-fluorobenzyl)oxy]phenyl}amino)-4,5-dihydro-3H-pyrimido[5′,4′:4,5]thieno[2,3-e]indazol-3-yl]-3-(dimethylamino)propan-2-ol trifluoroacetate (salt)], the figures for the IC50 in assay [1] and in assay [2] were at most 1 µM and at most 50 µM, respectively.

For `Fc1cccc(Cn2ncc3cc(Nc4ncnc5sc6c(c45)CCc4nn(CCN5CCOCC5)cc4-6)ccc32)c1` [Example 278, N-[1-(3-fluorobenzyl)-1H-indazol-5-yl]-2-(2-morpholin-4-ylethyl)-4,5-dihydro-2H-pyrimido[5′,4′:4,5]thieno[2,3-e]indazol-6-amine], the IC50 in assay [1] is at most 1 µM; in assay [2], at most 5 µM.

Take `CCN1CCN(C(=O)Cn2cc3c(n2)CCc2c-3sc3ncnc(Nc4ccc(OCc5cccc(F)c5)c(Cl)c4)c23)CC1` [Example 185, N-{3-chloro-4-[(3-fluorobenzyl)oxy]phenyl}-2-[2-(4-ethylpiperazin-1-yl)-2-oxoethyl]-4,5-dihydro-2H-pyrimido[5′,4′:4,5]thieno[2,3-e]indazol-6-amine]: the IC50 in assay [1] is at most 1 µM; in assay [2], at most 5 µM.

`Clc1cc(Nc2ncnc3sc4c(c23)CCc2n[nH]cc2-4)ccc1OCc1ccccn1` [Example 109, N-[3-chloro-4-(pyridin-2-ylmethoxy)phenyl]-4,5-dihydro-2H-pyrimido[5′,4′:4,5]thieno[2,3-e]indazol-6-amine]: the IC50 in assay [1] is at most 1 µM; in assay [2], at most 50 µM.

Turning to `CC(C)CCN1CCC(CCn2cc3c(n2)CCc2c-3sc3ncnc(Nc4ccc(OCc5cccc(F)c5)c(Cl)c4)c23)CC1` [Example 256, N-{3-chloro-4-[(3-fluorobenzyl)oxy]phenyl}-2-{2-[1-(3-methylbutyl)piperidin-4-yl]ethyl}-4,5-dihydro-2H-pyrimido[5′,4′:4,5]thieno[2,3-e]indazol-6-amine], the IC50 is at most 1 µM in assay [1] and at most 5 µM in assay [2].

As for `Fc1cccc(COc2ccc(Nc3ncnc4sc5c(c34)CCc3c-5cnn3CCCN3CCOCC3)cc2Cl)c1` [Example 271, N-{3-chloro-4-[(3-fluorobenzyl)oxy]phenyl}-3-(3-morpholin-4-ylpropyl)-4,5-dihydro-3H-pyrimido[5′,4′:4,5]thieno[2,3-e]indazol-6-amine], the IC50 in assay [1] is at most 1 µM; in assay [2] it was at most 50 µM.

With `OCCN(CCO)CCn1cc2c(n1)CCc1c-2sc2ncnc(Nc3ccc(F)c(Cl)c3)c12` [Example 26, 2,2′-[(2-{6-[(3-chloro-4-fluorophenyl)amino]-4,5-dihydro-2H-pyrimido[5′,4′:4,5]thieno[2,3-e]indazol-2-yl}ethyl)imino]diethanol], the IC50 in assay [1] and in assay [2] was at most 5 µM throughout.

`CN1CCN(CCn2cc3c(n2)CCc2c-3sc3ncnc(Nc4ccc(OCc5ccc(F)cc5)c(Cl)c4)c23)CC1` [Example 326, N-{3-chloro-4-[(4-fluorobenzyl)oxy]phenyl}-2-[2-(4-methylpiperazin-1-yl)ethyl]-4,5-dihydro-2H-pyrimido[5′,4′:4,5]thieno[2,3-e]indazol-6-amine]: the IC50 in assay [1] and in assay [2] was at most 5 µM in each case.

As to `O=C(CN1CCOCC1)N1CCC(n2cc3c(n2)CCc2c-3sc3ncnc(Nc4ccc(OCc5cccc(F)c5)c(Cl)c4)c23)CC1` [Example 222, N-{3-chloro-4-[(3-fluorobenzyl)oxy]phenyl}-2-[1-(morpholin-4-ylacetyl)piperidin-4-yl]-4,5-dihydro-2H-pyrimido[5′,4′:4,5]thieno[2,3-e]indazol-6-amine], the IC50 in assay [1] is at most 1 µM; in assay [2], at most 5 µM.

In the case of `CN(C)c1ccc(NC(=O)Cn2ncc3c2CCc2c-3sc3ncnc(Nc4ccc(OCc5cccc(F)c5)c(Cl)c4)c23)cc1` [Example 192, 2-[6-({3-chloro-4-[(3-fluorobenzyl)oxy]phenyl}amino)-4,5-dihydro-3H-pyrimido[5′,4′:4,5]thieno[2,3-e]indazol-3-yl]-N-[4-(dimethylamino)phenyl]acetamide], the IC50 is at most 5 µM in assay [1] and at most 50 µM in assay [2].

On to `COCCN1CCN(CCn2cc3c(n2)CCc2c-3sc3ncnc(Nc4ccc(OCc5cccc(F)c5)c(Cl)c4)c23)CC1` [Example 122, N-{3-chloro-4-[(3-fluorobenzyl)oxy]phenyl}-2-{2-[4-(2-methoxyethyl)piperazin-1-yl]ethyl}-4,5-dihydro-2H-pyrimido[5′,4′:4,5]thieno[2,3-e]indazol-6-amine], for which the IC50 in assay [1] is at most 1 µM; in assay [2], at most 5 µM.

As to `OCCn1ncc2c1CCc1c-2sc2ncnc(Nc3ccc4c(cnn4Cc4cccc(F)c4)c3)c12` [Example 289, 2-(6-{[1-(3-fluorobenzyl)-1H-indazol-5-yl]amino}-4,5-dihydro-3H-pyrimido[5′,4′:4,5]thieno[2,3-e]indazol-3-yl)ethanol], the IC50 in assay [1] is at most 1 µM; in assay [2], at most 5 µM.

`Fc1ccc(Nc2ncnc3sc4c(c23)CCc2nn(CCN3CCN(Cc5ccncc5)CC3)cc2-4)cc1Cl` [Example 14, N-(3-chloro-4-fluorophenyl)-2-{2-[4-(pyridin-4-ylmethyl)piperazin-1-yl]ethyl}-4,5-dihydro-2H-pyrimido[5′,4′:4,5]thieno[2,3-e]indazol-6-amine]: the IC50 in assay [1] and in assay [2] was at most 5 µM in each case.

As to `CN(C)[C@@H]1CCN(CCn2cc3c(n2)CCc2c-3sc3ncnc(Nc4ccc(OCc5cccc(F)c5)c(Cl)c4)c23)C1` [Example 60, N-{3-chloro-4-[(3-fluorobenzyl)oxy]phenyl}-2-{2-[(3R)-3-(dimethylamino)pyrrolidin-1-yl]ethyl}-4,5-dihydro-2H-pyrimido[5′,4′:4,5]thieno[2,3-e]indazol-6-amine], the IC50 is at most 1 µM in assay [1] and at most 5 µM in assay [2].

In the case of `CCC(CC)CN1CCC(CCn2cc3c(n2)CCc2c-3sc3ncnc(Nc4ccc(OCc5cccc(F)c5)c(Cl)c4)c23)CC1` [Example 250, N-{3-chloro-4-[(3-fluorobenzyl)oxy]phenyl}-2-{2-[1-(2-ethylbutyl)piperidin-4-yl]ethyl}-4,5-dihydro-2H-pyrimido[5′,4′:4,5]thieno[2,3-e]indazol-6-amine], the IC50 in assay [1] was at most 1 µM; in assay [2], at most 5 µM.

As to `CS(=O)(=O)OCCn1cc2c(n1)CCc1c-2sc2ncnc(Nc3ccc(OCc4ccccc4)c(Cl)c3)c12` [Example 125, 2-(6-{[4-(benzyloxy)-3-chlorophenyl]amino}-4,5-dihydro-2H-pyrimido[5′,4′:4,5]thieno[2,3-e]indazol-2-yl)ethyl methanesulfonate], the IC50 in assay [1] is at most 1 µM; in assay [2] it was at most 50 µM.

Take `CN1CCN(CCn2cc3c(n2)CCc2c-3sc3ncnc(Nc4ccc(OCc5cccc(Cl)c5)c(Cl)c4)c23)CC1` [Example 333, N-{3-chloro-4-[(3-chlorobenzyl)oxy]phenyl}-2-[2-(4-methylpiperazin-1-yl)ethyl]-4,5-dihydro-2H-pyrimido[5′,4′:4,5]thieno[2,3-e]indazol-6-amine]: the IC50 in assay [1] was at most 1 µM; in assay [2], at most 5 µM.

With `CN1CCN(C(=O)Cn2ncc3c2CCc2c-3sc3ncnc(Nc4ccc(OCc5cccc(F)c5)c(Cl)c4)c23)CC1` [Example 205, N-{3-chloro-4-[(3-fluorobenzyl)oxy]phenyl}-3-[2-(4-methylpiperazin-1-yl)-2-oxoethyl]-4,5-dihydro-3H-pyrimido[5′,4′:4,5]thieno[2,3-e]indazol-6-amine], the figures for the IC50 in assay [1] and in assay [2] were at most 1 µM and at most 5 µM, respectively.

Turning to `CNCCn1cc2c(n1)CCc1c-2sc2ncnc(Nc3ccc(OCc4cccc(F)c4)c(Cl)c3)c12` [Example 71, N-{3-chloro-4-[(3-fluorobenzyl)oxy]phenyl}-2-[2-(methylamino)ethyl]-4,5-dihydro-2H-pyrimido[5′,4′:4,5]thieno[2,3-e]indazol-6-amine], the figures for the IC50 in assay [1] and in assay [2] were at most 1 µM and at most 50 µM, respectively.

For `CS(=O)(=O)CCNCCn1cc2c(n1)CCc1c-2sc2ncnc(Nc3ccc(OCc4cccc(F)c4)c(Cl)c3)c12` [Example 78, N-{3-chloro-4-[(3-fluorobenzyl)oxy]phenyl}-2-(2-{[2-(methylsulfonyl)ethyl]amino}ethyl)-4,5-dihydro-2H-pyrimido[5′,4′:4,5]thieno[2,3-e]indazol-6-amine], the IC50 in assay [1] is at most 1 µM; in assay [2] it was at most 5 µM.

Take `CN1CCN(CCn2cc3c(n2)CCc2c-3sc3ncnc(Nc4ccc(SCc5ccncc5)cc4)c23)CC1` [Example 342, 2-[2-(4-methylpiperazin-1-yl)ethyl]-N-{4-[(pyridin-4-ylmethyl)thio]phenyl}-4,5-dihydro-2H-pyrimido[5′,4′:4,5]thieno[2,3-e]indazol-6-amine]: the IC50 was at most 5 µM in assay [1] and at most 50 µM in assay [2].

For the compound `CC(C)(C)[Si](C)(C)OCCn1cc2c(n1)CCc1c-2sc2ncnc(Nc3ccc(OCc4ccccn4)c(Cl)c3)c12` [Example 98, 2-(2-{[tert-butyl(dimethyl)silyl]oxy}ethyl)-N-[3-chloro-4-(pyridin-2-ylmethoxy)phenyl]-4,5-dihydro-2H-pyrimido[5′,4′:4,5]thieno[2,3-e]indazol-6-amine], the IC50 in assay [1] is at most 1 µM; in assay [2] it was at most 50 µM.
